Laboratory results: US20250346600A1, “TRICYCLIC DERIVATIVES AND RELATED USES” (MOMA Therapeutics, Inc., priority 2023, published 2025)
Where two headings read alike, the source gives them in different places.

Columns and labels:
HCT116 cells = assay: HCT116 (MSI) 7 day viability, CellTiter Glo; type: cell-based; conditions: 7 days, read-out: HCT116 (MSI) Viability 7 Day Abs AC50
Procedure, shortened: (§1)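 Luminescence read-out (CellTiter Glo) after 7-day compound exposure at 37 °C. Seeding density 50 cells/well for HCT116, 500 cells/well for HT29. Background from cell-free medium wells; IC50 by four-parameter logistic fit, geometric mean of at least 2 replicates.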

[1] = target: T1, Full length WRN protein (aa 2-1432) (Homo sapiens (Human), UniProt Q14191); assay: WRN ATPase ADP-Glo biochemical assay, Assay Format B (100 μM ATP); conditions: 0.25 nM WRN, 100 nM C6.18 ssDNA, 60 min preincubation, read-out: ATPase ADPGlo AC50 (uM)- Assay Format B
T1 sequence (Q14191 2-1432): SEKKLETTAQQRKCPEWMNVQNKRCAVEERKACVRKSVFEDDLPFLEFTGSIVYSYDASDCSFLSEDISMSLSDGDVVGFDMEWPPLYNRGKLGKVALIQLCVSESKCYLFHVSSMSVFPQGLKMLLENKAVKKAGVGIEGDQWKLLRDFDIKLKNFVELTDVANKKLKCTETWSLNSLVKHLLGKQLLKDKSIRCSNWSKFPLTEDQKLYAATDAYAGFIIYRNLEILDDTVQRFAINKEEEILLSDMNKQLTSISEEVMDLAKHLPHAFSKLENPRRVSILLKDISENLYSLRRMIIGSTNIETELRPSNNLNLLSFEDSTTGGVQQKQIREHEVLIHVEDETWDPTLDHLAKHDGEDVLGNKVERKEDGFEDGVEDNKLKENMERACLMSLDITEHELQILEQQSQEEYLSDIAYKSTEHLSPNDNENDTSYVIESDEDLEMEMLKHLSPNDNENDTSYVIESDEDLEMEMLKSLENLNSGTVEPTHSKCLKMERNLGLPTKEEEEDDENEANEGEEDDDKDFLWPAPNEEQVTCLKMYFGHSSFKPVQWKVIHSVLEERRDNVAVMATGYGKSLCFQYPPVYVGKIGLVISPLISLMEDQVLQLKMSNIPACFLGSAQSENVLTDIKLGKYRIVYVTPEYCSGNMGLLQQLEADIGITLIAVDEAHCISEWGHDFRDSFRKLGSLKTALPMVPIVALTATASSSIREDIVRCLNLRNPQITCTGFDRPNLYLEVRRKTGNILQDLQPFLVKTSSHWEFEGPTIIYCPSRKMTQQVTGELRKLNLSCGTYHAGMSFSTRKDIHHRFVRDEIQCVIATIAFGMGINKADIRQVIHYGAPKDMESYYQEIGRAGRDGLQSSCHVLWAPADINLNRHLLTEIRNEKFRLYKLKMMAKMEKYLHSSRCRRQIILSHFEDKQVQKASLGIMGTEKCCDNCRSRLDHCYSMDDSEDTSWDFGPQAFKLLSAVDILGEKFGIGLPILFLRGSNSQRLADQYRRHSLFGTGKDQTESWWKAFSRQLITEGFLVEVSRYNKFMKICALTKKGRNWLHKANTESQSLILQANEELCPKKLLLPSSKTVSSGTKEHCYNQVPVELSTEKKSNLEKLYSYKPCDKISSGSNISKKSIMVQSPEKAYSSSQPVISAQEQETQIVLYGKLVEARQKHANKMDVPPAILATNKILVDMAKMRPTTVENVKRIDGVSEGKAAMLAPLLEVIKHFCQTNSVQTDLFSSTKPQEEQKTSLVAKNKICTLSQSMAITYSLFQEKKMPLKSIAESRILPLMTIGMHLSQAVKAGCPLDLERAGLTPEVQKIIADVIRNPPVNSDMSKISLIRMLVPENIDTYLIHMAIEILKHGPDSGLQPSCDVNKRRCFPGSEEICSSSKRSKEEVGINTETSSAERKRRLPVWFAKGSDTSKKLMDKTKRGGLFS

[2] = target: T1, Full length WRN protein (aa 2-1432); assay: WRN ATPase ADP-Glo biochemical assay, Assay Format A (10 μM ATP); conditions: 0.25 nM WRN, 100 nM C6.18 ssDNA, 30 min preincubation, read-out: ATPase ADPGlo AC50 (uM)- Assay Format A
Procedure, shortened: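 Sf9-expressed FLAG-AVI-TEV-tagged WRN (0.5 nM) preincubated 30 min with compound (11-point 3-fold dilution). Reaction started with 200 nM C6.18 39-mer ssDNA and 20 μM ATP (addition concentrations), run 30 min at room temperature. ADP measured by ADP-Glo luminescence; IC50 from four-parameter fit, geometric mean of ≥2 runs.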

HT29 cells = assay: HT29 (MSS) 7 day viability, CellTiter Glo; type: cell-based; conditions: Homo sapiens, HT-29, 168 h, 7 days, read-out: HT29 (MSS) Viability 7 Day CTGAbs AC50
Procedure, shortened: as §1

SMILES | AC50 (HCT116 cells; Homo sapiens, HCT-116, 168 h) [nM] | AC50 [1] [µM] | AC50 [2] [µM] | AC50 (HT29 cells) [nM] | AC50 (HCT116 cells) [nM]
C=CC(=O)N1CCc2nn(-c3ccc(C4CC4)cc3)c3c2C(C1)N(C(=O)c1cnc(C(F)(F)F)c(F)c1N)CC3 (stereo not drawn) [Compound 178, 1-(5-(4-amino-5-fluoro-6-(trifluoromethyl)nicotinoyl)-2-(4-cyclopropylphenyl)-2,3,4,5,5a,6,8,9-octahydro-7H-1,2,5,7-tetraazabenzo[cd]azulen-7-yl)prop-2-en-1-one] | 1 to 100 | 0.005 to 0.015 | < 0.0015 | > 3000 | –
C=CC(=O)N1CC(C)c2nn(-c3ccc(C(C)C)cc3)c3c2C(C1)N(C(=O)c1ccc(Br)c2[nH]cnc12)CC3 (stereo not drawn) [Compound 33, 1-(5-(7-bromo-1H-benzo[d]imidazole-4-carbonyl)-2-(4-isopropylphenyl)-9-methyl-2,3,4,5,5a,6,8,9-octahydro-7H-1,2,5,7-tetraazabenzo[cd]azulen-7-yl)prop-2-en-1-one] | – | 0.005 to 0.015 | 0.0015 to 0.005 | > 3000 | 1 to 100
C=CC(=O)N1CC(OCc2ncco2)c2nn(-c3ccc(C4CC4)cc3)c3c2C(C1)N(C(=O)c1cnc(C(F)(F)F)cc1N)CC3 (stereo not drawn) [Compound 250, 1-(5-(4-amino-6-(trifluoromethyl)nicotinoyl)-2-(4-cyclopropylphenyl)-9-(oxazol-2-ylmethoxy)-2,3,4,5,5a,6,8,9-octahydro-7H-1,2,5,7-tetraazabenzo[cd]azulen-7-yl)prop-2-en-1-one] | 1 to 100 | < 0.0015 | < 0.0015 | > 3000 | –
C=CC(=O)N1CCc2nn(-c3ccc(C(C)C)cc3)c3c2C(C1)N(C(=O)c1cnc(C(F)(F)F)cc1N)CC3 (stereo not drawn) [Compound 150, 1-(5-(4-amino-6-(trifluoromethyl)nicotinoyl)-2-(4-isopropylphenyl)-2,3,4,5,5a,6,8,9-octahydro-7H-1,2,5,7-tetraazabenzo[cd]azulen-7-yl)prop-2-en-1-one] | 1 to 100 | 0.005 to 0.015 | < 0.0015 | > 3000 | –
C=CC(=O)N1CCc2nn(-c3ccc(C4CCC4)c(F)c3O)c3c2C(C1)N(C(=O)c1cnc(C(F)(F)F)cc1N)CC3 (stereo not drawn) [Compound 139, 1-(5-(4-amino-6-(trifluoromethyl)nicotinoyl)-2-(4-cyclobutyl-3-fluoro-2-hydroxyphenyl)-2,3,4,5,5a,6,8,9-octahydro-7H-1,2,5,7-tetraazabenzo[cd]azulen-7-yl)prop-2-en-1-one] | 1 to 100 | 0.005 to 0.015 | < 0.0015 | > 3000 | –
C=CC(=O)N1CCc2nn(-c3ccc(C4CCC4)cc3O)c3c2C(C1)N(C(=O)c1cnc2c(C)nn(C)c2c1)CC3 (stereo not drawn) [Compound 145, 1-(2-(4-cyclobutyl-2-hydroxyphenyl)-5-(1,3-dimethyl-1H-pyrazolo[4,3-b]pyridine-6-carbonyl)-2,3,4,5,5a,6,8,9-octahydro-7H-1,2,5,7-tetraazabenzo[cd]azulen-7-yl)prop-2-en-1-one] | 1 to 100 | 0.005 to 0.015 | < 0.0015 | > 3000 | –
C=CC(=O)N1CCc2nn(-c3ccc(C4CCC4)cc3O)c3c2C(C1)N(C(=O)c1cnc(C(F)(F)F)c(F)c1N)CC3 (stereo not drawn) [Compound 134, 1-(5-(4-amino-5-fluoro-6-(trifluoromethyl)nicotinoyl)-2-(4-cyclobutyl-2-hydroxyphenyl)-2,3,4,5,5a,6,8,9-octahydro-7H-1,2,5,7-tetraazabenzo[cd]azulen-7-yl)prop-2-en-1-one] | 1 to 100 | 0.0015 to 0.005 | < 0.0015 | > 3000 | –
C=CC(=O)N1CCc2nn(-c3ccc(CC(F)(F)F)cc3O)c3c2C(C1)N(C(=O)c1ccc(Br)c2[nH]cnc12)CC3 (stereo not drawn) [Compound 2, 1-(5-(7-bromo-1H-benzo[d]imidazole-4-carbonyl)-2-(2-hydroxy-4-(2,2,2-trifluoroethyl)phenyl)-2,3,4,5,5a,6,8,9-octahydro-7H-1,2,5,7-tetraazabenzo[cd]azulen-7-yl)prop-2-en-1-one] | 1 to 100 | 0.005 to 0.015 | < 0.0015 | > 3000 | –
C=CC(=O)N1CCc2nn(-c3ccc(C4CCC4)c(F)c3)c3c2C(C1)N(C(=O)c1cnc(C(F)(F)F)c(O)c1)CC3 (stereo not drawn) [Compound 66, 1-(2-(4-cyclobutyl-3-fluorophenyl)-5-(5-hydroxy-6-(trifluoromethyl)nicotinoyl)-2,3,4,5,5a,6,8,9-octahydro-7H-1,2,5,7-tetraazabenzo[cd]azulen-7-yl)prop-2-en-1-one] | 1 to 100 | 0.005 to 0.015 | < 0.0015 | > 3000 | –
C=CC(=O)N1CCOc2nn(-c3ccc(C4CCC4)cc3)c3c2C(C1)N(C(=O)c1ccc(Br)c2[nH]ncc12)CC3 (stereo not drawn) [Compound 42, 1-(5-(7-bromo-1H-indazole-4-carbonyl)-2-(4-cyclobutylphenyl)-2,3,4,5,5a,6,8,9-octahydro-7H-10-oxa-1,2,5,7-tetraazacycloocta[cd]inden-7-yl)prop-2-en-1-one] | 1 to 100 | 0.005 to 0.015 | < 0.0015 | > 3000 | –
C=CC(=O)N1CCc2nn(-c3ccc(C(C)C)cc3)c3c2C(C1)N(C(=O)c1ccc(Br)cc1C(N)=O)CC3 (stereo not drawn) [Compound 61, 2-(7-acryloyl-2-(4-isopropylphenyl)-3,4,5,5a,6,7,8,9-octahydro-2H-1,2,5,7-tetraazabenzo[cd]azulene-5-carbonyl)-5-bromobenzamide] | 250 to 500 | > 0.055 | 0.005 to 0.015 | > 3000 | –
Nc1cc(C(F)(F)F)ncc1C(=O)N1CCc2c3c(nn2-c2ccc(C4CCC4)cc2)CCN(C(=O)/C=C\Cl)CC31 (stereo not drawn) [Compound 243, 1-(5-(4-amino-6-(trifluoromethyl)nicotinoyl)-2-(4-cyclobutylphenyl)-2,3,4,5,5a,6,8,9-octahydro-7H-1,2,5,7-tetraazabenzo[cd]azulen-7-yl)-3-chloroprop-2-en-1-one] | 1 to 100 | 0.015 to 0.055 | 0.0015 to 0.005 | 1000 to 3000 | –
C=CC(=O)N1CCc2nn(-c3ccc(C4CCC4)cc3C)c3c2C(C1)N(C(=O)c1cnc(C(F)(F)F)cc1N)CC3 (stereo not drawn) [Compound 240, 1-(5-(4-amino-6-(trifluoromethyl)nicotinoyl)-2-(4-cyclobutyl-2-methylphenyl)-2,3,4,5,5a,6,8,9-octahydro-7H-1,2,5,7-tetraazabenzo[cd]azulen-7-yl)prop-2-en-1-one] | 1 to 100 | 0.0015 to 0.005 | < 0.0015 | > 3000 | –
C=CC(=O)N1CCc2nn(-c3ccc(C4CCC4)cc3O)c3c2C(C1)N(C(=O)c1ncc(C(F)(F)F)c(N)n1)CC3 (stereo not drawn) [Compound 159, 1-(5-(4-amino-5-(trifluoromethyl)pyrimidine-2-carbonyl)-2-(4-cyclobutyl-2-hydroxyphenyl)-2,3,4,5,5a,6,8,9-octahydro-7H-1,2,5,7-tetraazabenzo[cd]azulen-7-yl)prop-2-en-1-one] | 1 to 100 | 0.015 to 0.055 | 0.0015 to 0.005 | > 3000 | –
C=CC(=O)N1CCc2nn(-c3ccc(C(F)(F)F)cc3O)c3c2C(C1)N(C(=O)c1ccc(Br)c2[nH]cnc12)CC3 (stereo not drawn) [Compound 3, 1-(5-(7-bromo-1H-benzo[d]imidazole-4-carbonyl)-2-(2-hydroxy-4-(trifluoromethyl)phenyl)-2,3,4,5,5a,6,8,9-octahydro-7H-1,2,5,7-tetraazabenzo[cd]azulen-7-yl)prop-2-en-1-one] | 1 to 100 | 0.015 to 0.055 | 0.0015 to 0.005 | > 3000 | –
